{"source": "patent US20260086093A1", "about": "“METHODS TO DETERMINE DRUG TARGET RESIDENCE TIME AND TO SELECT BEST DRUG-TARGET CANDIDATES” (BiognoSYS AG, priority 2022, published 2026)", "key": {"[1]": {"target": "T1, Dual specificity mitogen-activated protein kinase kinase 3 (MP2K3) (Homo sapiens, UniProt P46734)", "T1 construct": "endogenous in cells; host or cells: native cellular proteome", "T1 sequence (P46734 1-347)": "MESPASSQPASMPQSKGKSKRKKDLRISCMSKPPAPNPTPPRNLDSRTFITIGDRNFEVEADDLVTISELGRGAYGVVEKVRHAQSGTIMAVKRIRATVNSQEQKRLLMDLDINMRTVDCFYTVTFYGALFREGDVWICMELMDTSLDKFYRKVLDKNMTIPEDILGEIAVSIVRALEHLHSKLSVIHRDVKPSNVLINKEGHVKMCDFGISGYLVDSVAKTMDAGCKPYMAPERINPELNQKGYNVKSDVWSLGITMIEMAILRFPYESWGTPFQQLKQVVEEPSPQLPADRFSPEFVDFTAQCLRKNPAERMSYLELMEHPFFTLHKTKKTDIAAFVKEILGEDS", "assay": "Jump-dilution LiP-MS residence time, complex MP2K3-Staurosporine", "format": "binding", "settings": "for Half-life: time to 50% decrease of relative peptide abundance, 4-parameter logistic fit, 100-fold jump dilution, native cellular proteome", "description": "(§1) Native proteomes were incubated with the ligand of interested (Staurosporine or Calyculin A)—lower panel—or with the solvent (DMSO)—upper panel. The sample treated with DMSO serves as negative control, and it is used to confirm that the observed effect is derived from the interaction of the Ligand with its Targets. The proteomes were then diluted by a factor of 100 (jump-dilution method), and aliquots with a sample of the ligand-bound proteome were extracted at distinct time points after dilution. Due to the reduction of the concentration of the Ligand in solution (as consequence to the jump-dilution), new binding events between Ligand and Target are very unlikely, and consequently it is expected that the proportion of Ligand-bound protein Target decreases over time, as the complex Ligand-Target dissociates. The samples incubated for the distinct times were then subjected to a limited proteolysis step using LiP-MS or DarkLiP-MS, and measured by mass spectrometry. In the right intensity (I) as a function of retention time (RT is given.\n(§2) For both LiP-MS and DarkLiP-MS, the limited proteolysis is performed with the unspecific protease thermolysin. After incubation for a short amount of time, the reaction is stopped by addition of EDTA.\nFor processing of LiP-MS experiments (1), the samples are dried after stopping the reaction. After re-solubilization with urea, the partially-fragmented proteome is reduced and alkylated, diluted with ammonium bicarbonate, and treated with LysC and Trypsin to generate a fully fragmented peptide sample. This peptide sample is acidified with TFA and cleaned with a C18 resin before analysis by mass spectrometry.\nStaurosporine is a natural compound that mimics the biological molecule ATP and acts as a promiscuous kinase inhibitor. Due to the similarities to ATP, Staurosporine has short residence times towards its protein Targets. To show the application of the LiP-MS technology for the measurement of short drug-residence times, the experimental workflow described in FIGS. 3, 4 and 5 was applied to the promiscuous kinase inhibitor Staurosporine. Native cellular proteomes were treated with Staurosporine or DMSO (vehicle) in duplicates, diluted 100 fold and analyzed by LiP-MS. The results of Example 1 are illustrated in FIG. 6. The graphs of FIG. 6 show the average abundances (y-axis) of four different peptides Peptide 1-Peptide 4 of the kinase MP2K3 measured between 0 and 60 minutes after jump-dilution (x-axis). The peptides Peptide 1-Peptide 4 are described in the database PeptideAtlas with the accessions PAp01457867, Pap00639637, PAp02016489 and PAp00503812. The graphs show a difference in peptide abundance between Staurosporine and DMSO, which is larger at earlier time points after dilution (between 0 and 30 min). The difference in abundance between Staurosporine-treated samples and DMSO decreases has time progresses.\nAccordingly to equation 1, the residence-time of Staurosporine towards MP2K3 can be determined based on the half-life of the complex MP2K3-Staurosporine. Since the half-life of the complex MP2K3-Staurosporine corresponds to the interval of time that led to a reduction of peptide abundance by 50%, we fit the values of peptide abundance to a 4-parameter logistic curve. Thereby we obtained the time that corresponded to a decrease of relative peptide abundance by 50% (Table 2). Since each peptide generates a slightly different value for the half-life of the complex due experimental variability, we calculated the median of the 4 values obtained based on the four graphs of FIG. 6."}, "[2]": {"test_system": "CDK1, CDK2, CDK4, CDK6, CDK7 and CDK9", "settings": "towards CDK1, CDK2, CDK4, CDK6, CDK7 and CDK9; cited from earlier work"}, "Kynureninase (KYNU)": {"target": "T2, Kynureninase (KYNU) (Homo sapiens, UniProt Q16719)", "T2 construct": "endogenous in cells; host or cells: native cellular proteome", "T2 sequence (Q16719 1-465)": "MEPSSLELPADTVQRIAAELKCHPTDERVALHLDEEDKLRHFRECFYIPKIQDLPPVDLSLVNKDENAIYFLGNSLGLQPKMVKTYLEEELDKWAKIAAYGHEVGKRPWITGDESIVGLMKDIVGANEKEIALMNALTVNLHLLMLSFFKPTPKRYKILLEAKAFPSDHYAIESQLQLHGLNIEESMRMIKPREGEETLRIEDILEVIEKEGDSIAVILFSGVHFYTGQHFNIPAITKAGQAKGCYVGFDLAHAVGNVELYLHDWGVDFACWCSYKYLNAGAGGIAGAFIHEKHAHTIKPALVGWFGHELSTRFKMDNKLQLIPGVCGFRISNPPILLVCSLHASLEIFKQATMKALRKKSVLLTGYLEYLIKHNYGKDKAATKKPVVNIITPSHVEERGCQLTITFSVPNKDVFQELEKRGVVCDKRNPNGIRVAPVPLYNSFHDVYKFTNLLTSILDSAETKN", "assay": "Jump-dilution LiP-MS, Calyculin A on non-target KYNU", "format": "binding", "settings": "entire length of the experiment after 100-fold jump-dilution; FIG. 8", "description": "as §1, §2\nFor processing of LiP-MS experiments (1), the samples are dried after stopping the reaction. […]"}, "[3]": {"target": "T3, phoshatase PP2A-alpha (PPP2CA) (Homo sapiens, UniProt P67775)", "T3 construct": "endogenous in cells; host or cells: native cellular proteome", "T3 sequence (P67775 whole entry)": "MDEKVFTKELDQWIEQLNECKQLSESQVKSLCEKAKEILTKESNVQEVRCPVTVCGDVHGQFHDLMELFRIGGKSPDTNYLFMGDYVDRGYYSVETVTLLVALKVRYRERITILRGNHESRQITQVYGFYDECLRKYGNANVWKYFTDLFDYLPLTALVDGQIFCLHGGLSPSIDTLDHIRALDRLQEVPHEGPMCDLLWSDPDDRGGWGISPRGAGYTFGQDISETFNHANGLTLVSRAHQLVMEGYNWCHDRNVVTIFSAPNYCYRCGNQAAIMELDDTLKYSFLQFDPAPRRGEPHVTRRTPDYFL", "assay": "Jump-dilution LiP-MS residence-time pattern, Calyculin A on PPP2CA", "format": "binding", "settings": "0 to 60 minutes after 100-fold jump-dilution; FIG. 7", "description": "Native proteomes were incubated with the ligand of interested (Staurosporine or Calyculin A)—lower panel—or with the solvent (DMSO)—upper panel. The sample treated with DMSO serves as negative control, and it is used to confirm that the observed effect is derived from the interaction of the Ligand with its Targets. The proteomes were then diluted by a factor of 100 (jump-dilution method), and aliquots with a sample of the ligand-bound proteome were extracted at distinct time points after dilution. […] The samples incubated for the distinct times were then subjected to a limited proteolysis step using LiP-MS or DarkLiP-MS, and measured by mass spectrometry. […]\nCalyculin A is a natural compound that acts as an potent and irreversible inhibitor of serine/threonine protein phosphatases. To show the application of the LiP-MS technology for the measurement of irreversible drug-residence times, the experimental workflow described in FIGS. 3, 4 and 5 was applied to the phosphatase inhibitor Calyculin A. Native cellular proteomes were treated with Calyculin A or DMSO (vehicle) in duplicates, diluted 100 fold and analyzed by LiP-MS. […]"}}}
{"compound": "CN[C@@H]1C[C@H]2O[C@@](C)([C@@H]1OC)n1c3ccccc3c3c4c(c5c6ccccc6n2c5c31)C(=O)NC4", "note": "[Staurosporine]", "values": [{"measurement": "Structural alteration of MP2K3 (peptide abundance vs DMSO) over time after jump-dilution", "setting": "[1]; 0 to 60 minutes after 100-fold jump-dilution, FIG. 6", "value": "structural alteration disappeared over time"}, {"measurement": "Half-life", "setting": "[1]; Peptide 1 of MP2K3", "value": 25, "unit": "min"}, {"measurement": "Half-life", "setting": "[1]; Peptide 2 of MP2K3", "value": 61, "unit": "min"}, {"measurement": "Half-life", "setting": "[1]; Peptide 3 of MP2K3", "value": 129, "unit": "min"}, {"measurement": "Half-life", "setting": "[1]; Peptide 4 of MP2K3", "value": 29, "unit": "min"}, {"measurement": "Median half-life", "setting": "[1]; median of the 4 peptide half-lives", "value": 45, "unit": "min"}]}
{"compound": "C[C@@H](O)[C@@H](C)Oc1nc(Nc2ccc(S(=N)(=O)C3CC3)cc2)ncc1C(F)(F)F", "note": "(stereo partly drawn) [Roniclib]", "values": [{"measurement": "IC50 values", "setting": "[2]", "value": "nanomolar range"}]}
{"compound": "COC[C@@H]([C@H](O)[C@H](O)C(=O)NCC[C@H](C)c1nc(/C=C/C[C@@H]2O[C@]3(C[C@@H](O)[C@@H]2C)O[C@H]([C@H](C[C@H](O)[C@H](C)[C@H](O)[C@H](C)/C=C(C)/C(C)=C/C=C/C(C)=C\\C#N)OC)[C@H](OP(=O)(O)O)C3(C)C)co1)N(C)C", "note": "[Calyculin A]", "values": [{"measurement": "Binding / structural alteration of KYNU (Peptide 6 intensity vs DMSO)", "setting": "Kynureninase (KYNU)", "value": "did not bind to KYNU"}, {"measurement": "Structural alteration of PPP2CA (Peptide 5 abundance vs DMSO) over time after jump-dilution", "setting": "[3]", "value": "did not disappear over time"}]}
